Counter-ions that a name gives are not always drawn. Like-named read-outs stand apart in the source and are kept apart here.

In patent US11440923B2, “Substituted macrocyclic indole derivatives” (Bayer Aktiengesellschaft, priority 2017, dated 2022) one finds EC50 and IC50 data, which are given here for three compounds.

What all share (format): cell-based
In series [1] the test system is SUDHL10 cells. As to the kind of experiment: Induction of caspase-3/7 activity in SUDHL10 cells (Assay 4). An outline of the steps:
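Read-out: Caspase-Glo 3/7 luminescence (1 h, 37 °C) after cells, plated overnight, were treated with compounds for 3 h at 37 °C. Signal corrected for cell-free medium background and expressed relative to DMSO control mean.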

In another series the test system is SUDHL5 cells. Briefly: Antiproliferation assay SUDHL5 (Assay 7). In short, it runs like this: (§1)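 Growth inhibition is determined from ATP luminescence (CellTiter-Glo) following 72 h incubation with compound. Time-zero cells are measured the same way for baseline, and IC50s are referenced to DMSO controls.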
The test system of the next series is AMO-1 cells. As to the kind of experiment: Antiproliferation assay AMO-1 (Assay 7). An outline of the steps: as §1
The subject of series [2] is SUDHL10 cells. Briefly: Induction of cytotoxicity in SUDHL10 cells (Assay 6). Particulars: 5 h, CellTiter-Glo; read-out: Cytotox SUDHL10 IC50 (median). In short, it runs like this:
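Following overnight seeding at 37 °C, cells are treated with compound for 5 h, after which CellTiter-Glo reagent is added and luminescence measured following a 15 min room-temperature shake.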
A general note: ATP-based viability assays read luminescence as a measure of living cells.

Where [3] appears, read: read-out: Caspase SUDHL10 EC50 (median); caspase-3/7 induction, 3 h.
The mark [4] stands for this setting: read-out: Antiproli SUDHL5 IC50 (median); 72 h, CellTiter-Glo.
Where [5] appears, read: read-out: Antiproli AMO-1 IC50 median; 72 h, CellTiter-Glo.

Broadly, the EC50 is the concentration giving half of the maximal effect. By IC50 is commonly meant the point on the concentration scale where inhibition reaches its midpoint. Consider `CCc1c2c(nn1C)C(CCN1CCC(F)(F)C1)OCCCCn1c(C(=O)O)c(CCCOc3cccc4cc(F)ccc34)c3ccc(Cl)c-2c31` (single isomer, unassigned; enantiomer 2) [Example 57, 4-chloro-15-[2-(3,3-difluoropyrrolidin-1-yl)ethyl]-3-ethyl-7-{3-[(6-fluoronaphthalen-1-yl)oxy]propyl}-2-methyl-2,10,11,12,13,15-hexahydropyrazolo[4′,3′:9,10][1,6]oxazacycloundecino[8,7,6-hi]indole-8-carboxylic Acid N-ethylethanamine Salt (Enantiomer 2)], for which, in the series on SUDHL10 cells [1] (setting [3]), the EC50 turned out to be 7.7 µM. Also, the IC50 in the series on SUDHL5 cells (setting [4]) was determined as 8.7 µM; in the series with AMO-1 cells (setting [5]), 4.52 µM; in the series with SUDHL10 cells [2] it was 10 µM.
In the case of `CCc1c2c(nn1C)C(CCC1CCOCC1)OCCCCn1c(C(=O)O)c(CCCOc3cccc4cc(F)ccc34)c3ccc(Cl)c-2c31` (single isomer, unassigned; enantiomer 2) [Example 62, (−)-4-chloro-3-ethyl-7-{3-[(6-fluoronaphthalen-1-yl)oxy]propyl}-2-methyl-15-[2-(oxan-4-yl)ethyl]-2,10,11,12,13,15-hexahydropyrazolo[4′,3′:9,10][1,6]oxazacycloundecino[8,7,6-hi]indole-8-carboxylic Acid (Enantiomer 2)], the concentration for a half-maximal effect (EC50) with SUDHL10 cells [1] (caspase-3/7 induction, 3 h; read-out: Caspase SUDHL10 EC50 (median)) turned out to be 6.9 µM. Also, the IC50 in the series on SUDHL5 cells (72 h, CellTiter-Glo; read-out: Antiproli SUDHL5 IC50 (median)) stood at 5.3 µM; in the series on AMO-1 cells (72 h, CellTiter-Glo; read-out: Antiproli AMO-1 IC50 median), 1.92 µM; with SUDHL10 cells [2], 7.8 µM.
For `CCc1c2c(nn1C)C(CC(C)(C)O)OCCCCn1c(C(=O)O)c(CCCOc3cccc4cc(F)ccc34)c3ccc(Cl)c-2c31` (single isomer, unassigned; enantiomer 21) [Example 54, (−)-4-chloro-3-ethyl-7-{3-[(6-fluoronaphthalen-1-yl)oxy]propyl}-15-(2-hydroxy-2-methylpropyl)-2-methyl-2,10,11,12,13,15-hexahydropyrazolo[4′,3′:9,10][1,6]oxazacycloundecino[8,7,6-hi]indole-8-carboxylic Acid—N-ethylethanamine Salt (Enantiomer 21], the EC50 with SUDHL10 cells [1] (setting [3]) came out at 14 µM. For the same compound, the values for the IC50 in the series on SUDHL5 cells (setting [4]), in the series with AMO-1 cells (setting [5]) and in the series with SUDHL10 cells [2] were 13 µM, 27.8 µM and 17 µM, respectively.
